From US20070270350A1, “Methods and Compositions for the Prevention and Treatment of Inflammatory Diseases or Conditions” (MUSC FOUNDATION FOR RESEARCH DEVELOPMENT, priority 2003, published 2007) come the findings set out here.

SMILES strings stand for the structures.

The test system of one experiment is KA-treated rats. Briefly: KA-induced seizure model (epilepsy model), rat hippocampus. The following applies: statin 10 mg/kg orally, 3 days after KA. It is filed as in vivo. On the procedure: FIG. 45. Experimental design for the use of statins as a therapeutic for kinic acid induced seizures (epilepsy model).
FIG. 46. […] The rats were orally pre-treated (7 days before) with atorvastatin (LP; 10 mg/kg) prior to KA (10 mg/kg, i.p.). At 3 days after KA injection, neuronal cell death in hippocampus was examined using cresyl violet stain.
FIG. 47. […] The rats were orally pre-treated (7 days before) with atorvastatin (LP; 10 mg/kg) prior to KA (10 mg/kg, i.p.). At 3 days after KA injection, infiltration of macrophages in the CA1 and CA3 regions of the hippocampus was examined using immunofluorescent labeling against for ED-1, as a marker of monocytes.
The rats were orally pre-treated (7 days before) with atorvastatin (LP; 10 mg/kg) prior to KA (10 mg/kg, i.p.). At 3 days after KA injection, neuronal cell death in the CA1 (A) and CA3 (B) regions of the hippocampus was examined using TUNNEL assay.
FIG. 49. […] The rats were orally pre-treated (7 days before) with lovastatin (Lov; 10 mg/kg) prior to KA (10 mg/kg, i.p.). At 3 days after KA injection, neuronal cell death in hippocampus was examined using cresyl violet stain.
FIG. 50A-C. […] The rats were orally pre-treated (7 days before) with atorvastatin (LP; 10 mg/kg) prior to KA (10 mg/kg, i.p.). At 3 days after KA injection, the expression of inflammatory genes (TNF-α, IL-1β, and iNOS) in hippocampus using real time PCR. The expression of each gene was normalized with GAPDH expression.
FIG. 51A-C. […] The rats were orally pre-treated (7 days before) with lovastatin (Lov; 10 mg/kg) prior to KA (10 mg/kg, i.p.). At 3 days after KA injection, the expression of inflammatory genes (TNF-α, IL-1β, and iNOS) in hippocampus using real time PCR. The expression of each gene was normalized with GAPDH expression.
Seizure index: stage 1, facial clonus; stage 2, nodding; stage 3, forelimb clonus; stage 4, forelimb clonus with rearing; stage 5, rearing, jumping, and falling. The rats were orally pre-treated (7 days before) with lovastatin or atorvastatin (Lov or LP; 10 mg/kg) prior to KA (10 mg/kg, i.p.).

The test system of the next experiment is Macrophages. The following applies: 10 μM lovastatin or 5 mM NaPA 8 h, LPS 1.0 μg/ml, 24 h.
The next experiment deals with Rat Primary Astrrocytes. The following applies: LPS 1.0 μg/ml, 24 h.
For another experiment, the system named is Microglia. The following applies: 10 μM lovastatin or 5 mM NaPA 8 h, LPS 1.0 μg/ml, 24 h.
A further experiment relates to T cells. Description: Cytokine production by PLP139-151-primed DLN cells and naïve T cells. Format: cell-based, mouse. The following applies: lovastatin 10 and 20 μM, p<0.0001. On the procedure:
(A), (C), (E), (G), and (I) DNL cells were isolated on day 10 from PLP139-151 immunized SJL/J mice and cultured in vitro at 5×10^6 cells/ml in the presence of PLP139-151 (5 μg/ml) and lovastatin (10 and 20 μM). (B) (D), (F), (H), and (J) Naïve T cells (98% purified) isolated from lymph nodes were cultured in anti-CD3 and anti-CD28-precoated plates at 1×10^6 cells/ml with lovastatin (10 and 20 μM). The supernatants were collected at 48 h (for IFN-γ and TNF-α) and 120 h (for IL-4, IL-5, and IL-10) for cytokine measurements. […] The values are the means of triplicate determinations at each point, and the error bars represent +/−SD.

In a further experiment the test system is EAE in SJL/J mice. Briefly: Active and passive EAE in SJL/J mice treated with lovastatin. Format: in vivo, mouse. The following applies: i.p. t or 5 mg/kg lovastatin every day, days 0-60 or started on day 10, p<0.001.
Another experiment concerns NF-κβ. Description: Nuclear translocation of NF-κβ in anti-CD3/CD28 stimulated naïve T cells. Format: cell-based, mouse. The following applies: lovastatin 2 h pretreatment, dose-dependent (5-50 μM); anti-CD3 and CD28 4 h.
[1] abbreviates: 48 h, PLP-primed and naïve T cells.

Take `CC[C@H](C)C(=O)O[C@H]1C[C@@H](C)C=C2C=C[C@H](C)[C@H](CC[C@@H]3C[C@@H](O)CC(=O)O3)[C@H]21` [Lovastatin, lovastatin]: in the experiment with KA-treated rats (7 days before KA 10 mg/kg i.p.), the “KA-induced neuronal cell death in hippocampus (cresyl violet stain)” value was “inhibited”. For the same compound, in the experiment on KA-treated rats (7 days before KA), the “expression of inflammatory genes (TNF-α, IL-1β, and iNOS) induced by KA in hippocampus (real time PCR)” value is “inhibited”. Also, the TNF-α was 1.2 +/− 0.1 ng/24 h/mg protein in the experiment on Macrophages (LPS only 18.6 +/− 2.3); 0.3 +/− 0.05 ng/24 h/mg protein with Rat Primary Astrrocytes (10 μM lovastatin or 5 mM NaPA 8 h, LPS only 5.3 +/− 0.8); 0.9 +/− 0.1 ng/24 h/mg protein with Microglia (LPS only 14.5 +/− 2.1). For the same compound, the Il-1β in the experiment with Macrophages (LPS only 34.6 +/− 4.5) is 2.3 +/− 0.3 ng/24 h/mg protein; with Rat Primary Astrrocytes (10 μM lovastatin or 5 mM NaPA 8 h, LPS only 10.4 +/− 1.5), 0.8 +/− 0.1 ng/24 h/mg protein; in the experiment with Microglia (LPS only 28.2 +/− 3.4), 2.1 +/− 0.3 ng/24 h/mg protein. For the same compound, the NO with Macrophages (LPS only 118.5 +/− 12.5) is 7.2 +/− 0.9 n mol/24 h/mg protein; in the experiment on Rat Primary Astrrocytes (10 μM lovastatin or 5 mM NaPA 8 h serum free, LPS only 25.3 +/− 3.2) it was 5.2 +/− 0.4 n mol/24 h/mg protein; in the experiment on Microglia (LPS only 81.2 +/− 6.9), 5.9 +/− 0.4 n mol/24 h/mg protein. For the same compound, the IL-6 in the experiment on Macrophages (LPS only 350.0 +/− 27.6) is given as 8.3 +/− 0.6 ng/24 h/mg protein; with Rat Primary Astrrocytes (10 μM lovastatin or 5 mM NaPA 8 h, LPS only 136.5 +/− 16.8), 0.8 +/− 0.1 ng/24 h/mg protein; in the experiment with Microglia (LPS only 295.6 +/− 33.5) it was 7.8 +/− 1.1 ng/24 h/mg protein. Besides, in the experiment on T cells (setting [1]), the IFN-γ in supernatants result is on record as “significantly reduced”. In addition, in the experiment on T cells (setting [1]), the TNF-α in supernatants entry is recorded as “significantly reduced”. Moreover, the IL-4 in supernatants entry in the experiment with T cells (120 h) was “significantly increased”. Further, the IL-5 in supernatants entry with T cells (120 h) is “significantly increased”. Moreover, the IL-10 in supernatants result in the experiment on T cells (120 h) is on record as “significantly increased”. Besides, the “severity of EAE disease (mean clinical scores)” value with EAE in SJL/J mice is recorded as “significantly less”. For the same compound, in the experiment with NF-κβ, the “nuclear translocation of NF-κβ” value was “inhibits”.
